Measurements from patent US8252723B2, “Substituted 1-(3-pyridinyl)pyrazol-4-ylacetic acids, processes for their preparation and their use as herbicides and plant growth regulators” (Bayer CropScience AG, priority 2006, dated 2012).

Key:
[1] = test system: weed plants such as Lolium multiflorum, Amaranthus retroflexus, Sinapis alba, Stellaria media and Setaria viridis; assay: Post-emergence effect on weeds (greenhouse pot test, visual scoring); type: in vivo; conditions: application rate of 500 g or less of active substance per hectare, visual scoring after about 3 to 4 weeks vs untreated controls, read-out: herbicidal action (control)
[2] = test system: weed plants such as Lolium multiflorum, Amaranthus retroflexus, Sinapis alba, Stellaria media and Setaria viridis; assay: Pre-emergence effect on weeds (greenhouse pot test, visual scoring); type: in vivo; conditions: pre-emergence method, application rate of 1 kg or less of active substance per hectare, visual scoring after 3 to 4 weeks vs untreated controls; read-out: herbicidal action (control)
From the text: Seeds or sections of rhizome from monocotyledonous and dicotyledonous weed plants were laid out in sandy loam soil in plastic pots, and covered with soil. The compounds according to the invention, formulated as wettable powders or emulsifiable concentrates, were then applied, in the form of aqueous suspensions or emulsions, at various dosages, onto the surface of the covering soil, at an application rate of 600 to 800 l of water/ha (converted).

[3] = test system: summer wheat of the cultivar 'Triso'; assay: Plant growth regulation test: culm stabilization of crop plants; type: in vivo; conditions: application rate of 30 to 300 g of active substance per hectare, treated at stage BBCH 31, culm length measured after ears had formed
Method in brief: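 Wettable-powder formulation with adjuvant (1 l/ha) sprayed at 300 l water/ha onto pot-grown plants at BBCH 31, then kept outdoors. After ear formation culm length was measured; culm stabilization is expressed as percent of untreated control.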

O=C(O)Cc1c(-c2ccccc2)nn(-c2cccnc2)c1-c1ccccc1 [Example 1-1, 3,5-diphenyl-1-(3-pyridyl)pyrazole-4-acetic acid]
pest or weed control at up to 500 g/ha [1]: ≥ 70% | pest or weed control at up to 1000 g/ha [2]: ≥ 70% | longitudinal growth (culm length) of summer wheat [3]: effectively shortened | melting point: 172 °C

C#CCOC(=O)Cc1c(C)nn(-c2cnccc2C)c1-c1ccccc1 [Example 3-76, Prop-2-yn-1-yl [3-methyl-1-(4-methylpyridin-3-yl)-5-phenyl-1H-pyrazol-4-yl]acetate]
pest or weed control at up to 500 g/ha [1]: ≥ 70% | pest or weed control at up to 1000 g/ha [2]: ≥ 70% | longitudinal growth (culm length) of summer wheat [3]: effectively shortened

Cc1nn(-c2cccnc2)c(-c2cccc(Cl)c2)c1CC(=O)O [Example 1-17, [5-(3-Chlorophenyl)-3-methyl-1-pyridin-3-yl-1H-pyrazol-4-yl]acetic acid]
pest or weed control at up to 500 g/ha [1]: ≥ 70% | pest or weed control at up to 1000 g/ha [2]: ≥ 70% | longitudinal growth (culm length) of summer wheat [3]: effectively shortened

Cc1nn(-c2cccnc2)c(-c2ccccc2)c1CC(=O)O [Example 1-2, 3-methyl-5-phenyl-1-(3-pyridyl)pyrazole-4-acetic acid]
pest or weed control at up to 500 g/ha [1]: ≥ 70% | pest or weed control at up to 1000 g/ha [2]: ≥ 70% | longitudinal growth (culm length) of summer wheat [3]: effectively shortened | melting point: 192 °C

COC(=O)Cc1c(C)nn(-c2cnccc2C)c1-c1ccccc1 [Example 2-10, Methyl [3-methyl-1-(4-methylpyridin-3-yl)-5-phenyl-1H-pyrazol-4-yl]acetate]
pest or weed control at up to 500 g/ha [1]: ≥ 70% | pest or weed control at up to 1000 g/ha [2]: ≥ 70% | longitudinal growth (culm length) of summer wheat [3]: effectively shortened
